# Laboratory results published in patent US10711001B2, “Macrocylic ligands with picolinate group(s), complexes thereof and also medical uses thereof” (GUERBET, priority 2015, dated 2020).
# Like-named read-outs stand apart in the source and are kept apart here. Marks after values point to notes of the source that are not given here.
# Key:
# [1] = pM = −log[M] calculated from protonation and stability constants; type: physicochemical; conditions: calculated from the constants with CL = 10 × CM = 10^−5 M at pH 7.4
# Source text: The constant pM=-log[M] is used for this purpose. […] The ligand […]04214 has a p(Y) of 17.3, which is higher than that of PCTA (p(Y)=17.0), of […])=16.8) and of […])=16.9).
# [2] = cited from earlier work
# [3] = Y^3+, cited from earlier work
# [4] = Relaxivity of the gadolinium complexes; type: physicochemical; conditions: gadolinium complex of the ligand, water, 37° C.
# Method: The relaxivity studies were performed on the gadolinium complexes of the ligands P04218, P04216 and P04213, on Minispec Mq-20 and Minispec Mq-60 machines (Brüker, Karlsruhe, Germany) at 20 MHz (0.47 T) and 60 MHz (1.4 T) in water at 37° C.
# For each complex prepared previously, a [Gd] concentration range extending from 0.5 to 5 mM was prepared and the values T1 and T2 of each of these solutions were then measured to determine the relaxivity values r1 and r2 by means of equation 1. For each of the ligands, a trend curve whose correlation coefficient was equal to or very close to 1 was obtained, which made it possible to check equation 1 and to validate the quality of the measurements taken. The curves plotted make it possible to determine the relaxivity value “r” which corresponds to coefficient “a” of the equation for the straight line “ax+b”.
# [5] = Stability constants of the yttrium complexes by potentiometry; type: physicochemical; conditions: Y^3+
# Method: (§1) The experiments were performed under an inert atmosphere in aqueous solutions thermostatically maintained at 25.0±0.1° C. The protonation and complexation titrations were performed in a jacketed glass titrations cell using a Metrohm 702 SM Titrino automatic burette connected to a Metrohm 6.0233.100 combined glass electrode. The titrations were controlled automatically by software after selection of the appropriate parameters avoiding monitoring during long measurements.
# (§2) The ligand solutions were prepared at approximately 2.0×10^−3 M and the Cu^2+, Pb^2+ and y^3+ solutions at approximately 0.04 M from analytical-grade chloride salts and standardized by complexometric titration with H4edta (ethylenediaminetetraacetic acid)^1. The solution to be titrated contains approximately 0.05 mmol of ligand in a volume of 30.00 mL, the ionic strength of which was maintained at 0.10 M using KNO3 as electrolyte. 1.2 equivalents of metal cation (Cu^2+ or Pb^2+) were added to the ligand (0.05 mmol) during the standardization titrations of the ligand solution.
# 0.9 equivalent of metal cation (Y^3+) was added to the ligand during the complexation titration methods.
# (§3) The potentiometric data were refined with the Hyperquad software^2 and the speciation diagrams were plotted using the HySS software^3.
# (§4) The overall equilibrium constants βiH and βMmHhLl are defined by βMmHhLl=[MmHhLl]/[M]m[H]h[L]l, (βiH=[HhLl]/[H]h[L]l and βMH−1L=βML(OH)×Ke). The differences, in log units, between the protonation (or hydrolysis) values and the non-protonation constants give the intermediate reaction constants (log K) (with KMmHhLl=[MmHhLl]/[MmHh-1Ll][H]). The errors indicated are the standard deviations calculated by the adjustment program from all of the experimental data for each system.
# The thermodynamic protonation and stability constants of the complexes were determined by potentiometry at 25° C. with control of the ionic strength (I=0.1 M KNO3). Refinement of the titration curves with the HyperQuad software makes it possible to determine the overall constants (log β), from which the partial constants (log K) are calculated.
# The stability constants of the ligands Pc1a2pa sym P04213, Pc1a2pa asym P04214 et Pc2a1pa sym P04218 and P04221 with yttrium were determined by direct potentiometric titration. The log KYL constant values for the ligands Pc1a2pa sym, Pc1a2pa asym and Pc2a1pa sym are, respectively, 19.78, 19.49 and 19.28, and the log KYLH^−1 constant values are 11.84, 11.79 and 10.60.
# [6] = Protonation constants of the ligands by potentiometry; type: physicochemical; conditions: I = 0.1 KNO3, 25° C.
# Method: as §1
# The titrant is an approximately 0.1 M KOH solution prepared from an analytical-grade commercial vial and its exact concentration is obtained by applying the Gran method by titrating with a standard HNO3 solution.
# as §2
# The electromotive force of the solution was measured after calibration of the electrode by titration of a standard […] HNO3 solution. The [H^+] of the solutions was determined by measuring the electromotive force of the cell, E=E^o′+Q log [H^+]+Ej. The term “pH” is defined by −log[H^+]. E^o′ and Q are determined by the acidic region of the calibration curves. The liquid junction potential, Ej, is negligible under the experimental conditions used. The value of Ke=[H^+][OH^−] is 10^−13.78.
# as §3, §4
# Four protonation constants were determined for the ligands Pc1a2pa sym P04213, Pc1a2pa asym P04214, Pc2a1pa sym P04216 and Pc3pa P04221. These values are coherent with those determined for PCTMB (phosphonic acid, P,P′,P″-[3,6,9,15-tetraazabicyclo[9.3.1]pentadeca-1(15),11,13-triene-3,6,9-triyltris(methylene)]tris-, P,P′,P″-tributyl ester) and also with those described in the literature especially for PCTA (3,6,9,15-tetraazabicyclo[9.3.1]pentadeca-1(15),11,13-triene-3,6,9-triacetic acid), EDTA (ethylenediaminetetraacetic acid) and DOTA (1,4,7,10-tetraazacyclododecane-1,4,7,10-tetraacetic acid).
# [7] = Complexation kinetics of the ligands with yttrium by UV-visible spectroscopy; type: physicochemical
# Method: The formation of the yttrium(III) complexes of […] were studied in an aqueous solution of acetate buffer (C=0.150 M) at 25° C. under pseudo-first-order conditions.
# The complexation kinetics of the ligands Pc1a2pa sym P04213, Pc1a2pa asym P04214 and Pc2a1pa sym P04218 with yttrium were studied at pH 3.8 and pH 5.5 in acetate buffer medium by UV-visible spectroscopy. Placed at the absorption maximum of the complex, the increase in absorbance intensity is measured every two seconds until the maximum absorbance is reached. The decrease in intensity of the absorbance at the absorbance maximum of the ligand is monitored when the absorption band of the complex is masked by that of the ligand. For this study, the concentration of the ligands Pc1a2pa sym and Pc1a2pa asym is 4×10^−5 M and 8×10^−5 M for the ligand Pc2a1pa sym. At pH 5.5 and 3.8, the ligand Pc1a2pa sym has the fastest complexation kinetics, with total complexation in 30 and 400 seconds, respectively. For the ligands Pc1a2pa asym and Pc2a1pa sym, the complexation is complete in 1100 seconds at pH 3.8 and 100 seconds at pH 5.5.
# [8] = direct potentiometric titration, 25° C., I=0.1 M KNO3
# [9] = determined by competition with EDTA, 0.1M KNO3
SMILES,pY (pM = −log[M]) [1],Relaxivity r1 ([4]; 20 MHz (0.47 T)),Relaxivity r1 ([4]; 60 MHz (1.4 T)),"log KMHiL [ML]/[MLOH][H] (log KYLH^−1) [5, 8]","log KMHiL [ML]/[M][L] (log KYL) [5, 8]",log Ki^H [H2L]/[HL][H] [6],log Ki^H [H3L]/[H2L][H] [6],log Ki^H [H4L]/[H3L][H] [6],log Ki^H [HL]/[L][H] [6],"time to total complexation with yttrium ([7]; pH 3.8, acetate buffer) [s]","time to total complexation with yttrium ([7]; pH 5.5, acetate buffer) [s]",also measured
"O=C(O)CN1CCN(CC(=O)O)CCN(CC(=O)O)CCN(CC(=O)O)CC1 [DOTA, 1,4,7,10-tetraazacyclododecane-1,4,7,10-tetraacetic acid]",18.8,,,,,,,,,,,"log Ki^H [H2L]/[HL][H] ([2]; I = 0.1 Me4NNO3): 9.76; log Ki^H [H3L]/[H2L][H] ([2]; I = 0.1 Me4NNO3): 4.56; log Ki^H [H4L]/[H3L][H] ([2]; I = 0.1 Me4NNO3): 4.09; log KMHiL [ML]/[M][L] ([3]; Ref 7, 0.1M NMe4NO3): 24.9 ^h"
"O=C(O)CN(CCN(CC(=O)O)CC(=O)O)CC(=O)O [EDTA, ethylenediaminetetraacetic acid]",16.6,,,,,,,,,,,"log Ki^H [H2L]/[HL][H] ([2]; I = 0.1 KNO3): 6.16; log Ki^H [H3L]/[H2L][H] ([2]; I = 0.1 KNO3): 2.71; log Ki^H [H4L]/[H3L][H] ([2]; I = 0.1 KNO3): 2.0; log Ki^H [HL]/[L][H] ([2]; I = 0.1 KNO3): 10.22; log KMHiL [ML]/[M][L] ([3]; Ref 5, 0.1M NMe4Cl): 18.5 ^d"
O=C(O)CN1CCN(Cc2cccc(C(=O)O)n2)Cc2cccc(n2)CN(Cc2cccc(C(=O)O)n2)CC1 [Ligand P04213],16.8,r1 = 1.9 mmol^−1s^−1,r1 = 1.6 mmol^−1s^−1,11.84,19.78,5.58,4.23,3.01,11.30,400,30,
O=C(O)CN1CCN(Cc2cccc(C(=O)O)n2)CCN(Cc2cccc(C(=O)O)n2)Cc2cccc(n2)C1 [Ligand P04214],17.3,,,11.79,19.49,6.73,3.86,2.98,10.50,1100,100,
O=C(O)CN1CCN(CC(=O)O)Cc2cccc(n2)CN(Cc2cccc(C(=O)O)n2)CC1 [Ligand P04216],,r1 = 3.7 mmol^−1s^−1,r1 = 3.2 mmol^−1s^−1,,,,,,,,,
O=C(O)CN1CCN(Cc2cccc(C(=O)O)n2)CCN(CC(=O)O)Cc2cccc(n2)C1 [Ligand P04218],16.9,r1 = 3.9 mmol^−1s^−1,r1 = 3.2 mmol^−1s^−1,10.60,19.28,7.38,3.95,2.15,10.43,1100,100,
O=C(O)c1cccc(CN2CCN(Cc3cccc(C(=O)O)n3)Cc3cccc(n3)CN(Cc3cccc(C(=O)O)n3)CC2)n1 [Ligand P04221],,,,,,5.95,3.82,2.98,10.03,,,
O=C([O-])c1cccc(CN2CCN(Cc3cccc(C(=O)[O-])n3)Cc3cccc(n3)CN(Cc3cccc(C(=O)[O-])n3)CC2)n1.[Y+3] [Ligand P04222],14.7,,,11.02,16.42,,,,,,,"log KMHiL [MHL]/[ML][H] [5, 8]: 3.11"
"O=C(O)CN1CCN(CC(=O)O)Cc2cccc(n2)CN(CC(=O)O)CC1 [PCTA, 3,6,9,15-tetraazabicyclo[9.3.1]pentadeca-1(15),11,13-triene-3,6,9-triacetic acid]",17.0,,,,,,,,,,,"log Ki^H [H2L]/[HL][H] ([2]; I = 1.0 KCl): 7.35; log Ki^H [H3L]/[H2L][H] ([2]; I = 1.0 KCl): 3.83; log Ki^H [H4L]/[H3L][H] ([2]; I = 1.0 KCl): 2.12; log Ki^H [H5L]/[H4L][H] ([2]; I = 1.0 KCl): 1.29; log Ki^H [HL]/[L][H] ([2]; I = 1.0 KCl): 11.36; log KMHiL [MHL]/[ML][H] ([3]; Ref 3, 1.0M KCl): 1.81; log KMHiL [ML]/[MLOH][H] ([3]; Ref 3, 1.0M KCl): 11.10; log KMHiL [ML]/[M][L] ([3]; Ref 3, 1.0M KCl): 20.28"
"CCCCOP(=O)(O)CN1CCN(CP(=O)(O)OCCCC)Cc2cccc(n2)CN(CP(=O)(O)OCCCC)CC1 [PCTMB, phosphonic acid, P,P′,P″-[3,6,9,15-tetraazabicyclo[9.3.1]pentadeca-1(15),11,13-triene-3,6,9-triyltris(methylene)]tris-, P,P′,P″-tributyl ester, reference compound]",16.7,,,,,5.28,1.72,,11.16,,,"log KMHiL [MHL]/[ML][H] [5, 9]: 3.45; log KMHiL [ML]/[MLOH][H] [5, 9]: 9.10; log KMHiL [ML]/[M][L] [5, 9]: 19.49"
